From PubChem BioAssay AID1117361 (Southern Research Institute, 2015)

Each compound was assayed against Protein Tat (Human immunodeficiency virus type 1 group M subtype B (isolate HXB2)) (UniProt P04608) (assay: inhibitors of Tat binding to TAR RNA, dose response, counter-screen for Vif-APOBEC3G degradation inhibitor project, biochemical, fluorescence polarization, FAM-labeled TAR RNA (AID 1117361)).
Protein Tat (Human immunodeficiency virus type 1 group M subtype B (isolate HXB2)), sequence (P04608 whole entry, looked up): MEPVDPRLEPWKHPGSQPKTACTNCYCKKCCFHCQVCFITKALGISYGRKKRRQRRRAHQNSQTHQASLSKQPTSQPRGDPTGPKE

| SMILES | IC50 [µM] |
| --- | --- |
| Cc1cc(-c2nc3c4c5c(sc4[nH]c(=O)n3n2)CCC5)c(C)o1 | 3.66 |
| O=CN/C=C/c1cc(O)ccc1O | 11 |
| COc1ccc(NC(=O)c2cc(-c3ccco3)nc3ccccc23)cc1S(=O)(=O)N1CCOCC1 | 19.3 |
| CC(CNc1ccccc1O)C(=O)O (centres undefined) | 32.7 |
| Cc1cc(-c2csc(NC(=O)c3ccc(C#N)cc3)n2)c(C)n1Cc1ccco1 | 16.7 |
| Cc1cc2c(c(=O)o1)C(c1ccc([N+](=O)[O-])o1)C(C#N)=C(N)O2 (centres undefined) | 9.96 |
| COc1ccc(NC(=O)CN(C)C(=O)c2cc(-c3ccco3)nc3ccccc23)cc1 | 46.4 |
| CCCCNC(=O)c1ccc2nc(-c3ccco3)c(-c3ccco3)nc2c1 | 6.84 |
| O=C(C1CCCO1)N1CCC2(CC1)OCCO2 (centres undefined) | 5.55 |
| Cc1cccc(-n2c(Cc3cc(=O)[nH]c(=O)[nH]3)nnc2SCC(=O)NCC2CCCO2)c1 (centres undefined) | 58.5 |
| O=C1c2sc3nc4n(c(=O)c3c2CCC1Br)CCCCC4 (centres undefined) | 4.82 |
| CNc1ccc(Br)cc(C(=O)/C=C/c2cc(OC)ccc2OC)c1=O | 9.75 |
| O=C(O)CCc1ccc(-c2cccs2)n1-c1ccc(C(=O)O)cc1 | 45.6 |
| O=C1NC(=O)N(c2ccccc2)C(=O)/C1=C\c1ccc([N+](=O)[O-])s1 | 10.7 |
| CC1(C)N([O-])c2cc([N+](=O)[O-])ccc2[N+]1=O | 61.3 |
| CC(=O)Nc1ccc(C=C(C#N)c2ccc(C)cc2)cc1 | 24.7 |
| O=C(NCCCO)c1ccc2nc(-c3ccco3)c(-c3ccco3)nc2c1 | 3.58 |

| SMILES | IC50 [µM] |
| --- | --- |
| CC1=NN(c2cccc(C(=O)O)c2)C(=O)/C1=C\C=C\c1ccco1 | 12 |
| CCOC(=O)COc1nc(-c2ccco2)cc(-c2ccco2)c1C#N | 8.34 |
| CC(=O)Nc1ccc(S(=O)(=O)NCCSCc2ccco2)cc1 | 65.8 |
| O=C1N=C(N2CCN(c3ccccc3)CC2)S/C1=C\c1ccco1 | 11.9 |
| CCCOc1ccc(Cc2nn3c(=O)/c(=C/c4ccco4)sc3nc2=O)cc1 | 2.68 |
| N#C/C(=C\c1ccc([N+](=O)[O-])o1)C(=O)Nc1ccc(F)cc1 | 55.6 |
| CCCC(=O)N(CCc1ccc(OC)cc1)Cc1nc2ccccc2c(=O)[nH]1 | 71.8 |
| Cc1ccc(C(=O)C2=C(O)C(=O)N(c3ncccn3)C2c2ccc(F)cc2)o1 (centres undefined) | 82.7 |
| COc1cc(NCCCCCCN)c2ncccc2c1OC | 56.7 |
| O=C1CC(c2ccco2)CC(O)=C1C=Nc1cc(Cl)ccc1Cl (centres undefined) | 7.33 |
| Cc1oc(C)c2c(=O)ccc3c(c12)OC(N)=C(C#N)C3c1ccccc1 (centres undefined) | 81.9 |
| Cc1cc(C(=O)Nc2sc3c(c2C#N)CCCCC3)cs1 | 23.6 |
| S=c1[nH]nc(-c2cccnc2)n1/N=C/C=C/c1ccco1 | 5.3 |
| CCc1nc2oc3cc(OC)ccc3c(=O)c2c(=O)n1Cc1ccco1 | 24 |
| O=C(/C=C/c1ccco1)N(c1ccccn1)c1ccccn1 | 7.9 |
| COc1ccc(NC(=O)/C(C#N)=C\c2ccc(Br)o2)cc1 | 60.8 |
| O=C1C(Cl)=C(N2CCOCC2)C(=O)N1c1ccccc1 | 16.6 |
